Activity calls are given as the source filed them.
Key:
[1] = Permeability of the compound across blood brain barrier incubated for 18 hrs by UV plate reader based PAMPA assay; type: ADME, tissue-based; conditions: read-out: permeability
[2] = target: T1, Fatty-acid amide hydrolase 1 (Homo sapiens, UniProt O00519); assay: Inhibition of human recombinant FAAH using arachidonoyl as substrate preincubated for 5 mins followed by substrate addition by fluorescence based assay
T1 sequence (O00519 whole entry): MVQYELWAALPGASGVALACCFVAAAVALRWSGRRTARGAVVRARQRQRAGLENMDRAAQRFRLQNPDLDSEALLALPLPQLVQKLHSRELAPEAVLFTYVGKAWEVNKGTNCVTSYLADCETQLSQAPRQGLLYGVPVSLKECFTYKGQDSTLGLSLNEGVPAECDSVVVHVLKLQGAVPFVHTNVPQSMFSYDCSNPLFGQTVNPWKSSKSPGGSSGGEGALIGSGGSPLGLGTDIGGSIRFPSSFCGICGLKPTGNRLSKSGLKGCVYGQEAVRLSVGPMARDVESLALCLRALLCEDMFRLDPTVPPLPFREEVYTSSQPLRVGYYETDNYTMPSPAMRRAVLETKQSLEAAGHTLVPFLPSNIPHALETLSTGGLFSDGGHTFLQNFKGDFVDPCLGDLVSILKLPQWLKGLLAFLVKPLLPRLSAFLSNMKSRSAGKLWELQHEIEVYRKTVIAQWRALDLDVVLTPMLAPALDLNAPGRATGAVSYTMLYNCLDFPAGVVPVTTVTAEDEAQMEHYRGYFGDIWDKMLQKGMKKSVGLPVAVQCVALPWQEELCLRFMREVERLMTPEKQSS

[3] = test system: Rattus norvegicus; assay: Antinociceptive activity in CCI surgery-neuropathic pain induced nerve injured rat model assessed as increase in mechanical ipsilateral paw withdrawal threshold at 30 mg/kg for 30 to 240 mins measured on day 14; type: functional, organism-based; conditions: time 30-240 min
[4] = test system: Rattus norvegicus; assay: Antinociceptive activity in CCI surgery-neuropathic pain induced nerve injured rat model assessed as increase in tail flick latency at 30 mg/kg for 60 to 120 mins measured on day 14; type: functional, organism-based; conditions: time 60-120 min
[5] = target: T2, Monoglyceride lipase (Homo sapiens, UniProt Q99685); assay: Inhibition of human recombinant MAGL using 4-nitrophenyl acetate as substrate preincubated for 5 mins followed by substrate addition by fluorescence based colorimetry assay
T2 sequence (Q99685 whole entry): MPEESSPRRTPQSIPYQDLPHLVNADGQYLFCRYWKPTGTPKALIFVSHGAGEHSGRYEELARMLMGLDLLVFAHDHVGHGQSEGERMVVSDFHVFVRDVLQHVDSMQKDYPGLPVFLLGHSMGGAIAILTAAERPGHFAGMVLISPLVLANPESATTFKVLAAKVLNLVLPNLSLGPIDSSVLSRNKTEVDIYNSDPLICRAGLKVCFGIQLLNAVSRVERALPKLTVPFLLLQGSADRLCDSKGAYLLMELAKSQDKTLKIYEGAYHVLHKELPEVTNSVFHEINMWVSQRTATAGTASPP

With `CCn1cc(C(=O)O)c(=O)c2cc(F)c(N3CCNC(C)C3)c(F)c21` (stereo unspecified) [LOMEFLOXACIN] the Papp at 18 h [1] was 0.8 ×10⁻⁶ cm/s.
In the case of `COc1ccc(/C=N\NC(=O)Nc2ccc(S(C)(=O)=O)cc2)cc1`, the Papp at 18 h [1] is reported as 5.1 ×10⁻⁶ cm/s and the IC50 [2] is reported as 0.035 µM.
With `CS(=O)(=O)c1ccc(NC(=O)N/N=C\c2ccccc2O)cc1` the IC50 [2] was 0.72 µM.
In the case of `C/C(=N/NC(=O)Nc1ccc(S(C)(=O)=O)cc1)c1ccccc1`, the IC50 [2] is reported as 0.33 µM.
In the case of `NCC1(CC(=O)O)CCCCC1`, the Activity [3] is reported as “Active” and the Activity [4] is reported as “Active”.
For `C/C(=N/NC(=O)Nc1ccc(S(C)(=O)=O)cc1)c1ccc(Br)cc1Br`, the IC50 [5] was over 10 µM and the IC50 [2] was 0.135 µM.
`CS(=O)(=O)c1ccc(NC(=O)N/N=C2/C(=O)Nc3ccccc32)cc1` showed an IC50 [2] of 0.034 µM.
For `CS(=O)(=O)c1ccc(NC(=O)N/N=C\c2ccc(O)cc2)cc1`, the IC50 [2] was 0.78 µM.

Source: ChEMBL document CHEMBL5143629, “Synthesis and evaluation of dual fatty acid amide hydrolase-monoacylglycerol lipase inhibition and antinociceptive activities of 4-methylsulfonylaniline-derived semicarbazones” (Bioorg Med Chem, 2022)
